According to US7435820B2, “Substituted tetrahydro-1H-pyrazolo [3,4-c]pyridines compositions comprising them, and use” (Aventis Pharma S.A., priority 2003, dated 2008):

Target: T1, human Tie2 (Homo sapiens, UniProt Q02763)
T1 construct: human Tie2 corresponding to amino acids 776-1124 of the intracellular domain was generated by PCR; made in house; host or cells: baculovirus expression system (vector pFastBacGT)
Assay: Tie2 kinase inhibition: phosphorylation of GST-PLC (SH2-SH3 fragments) by GST-Tie2, 33P-ATP flashplate
Type: biochemical
Conditions: Assay 1, 10 µM
Procedure: The coding sequence of human Tie2 corresponding to amino acids 776-1124 of the intracellular domain was generated by PCR using the cDNA isolated from human placenta as model. This sequence was introduced into a baculovirus expression vector pFastBacGT in the form of a GST fusion protein.
The inhibitory effect of the molecules is determined in an assay for phosphorylation of PLC by Tie2 in the presence of GST-Tie2 purified to approximately 80% homogeneity. The substrate is made up of the SH2-SH3 fragments of PLC, the latter being expressed in the form of a GST fusion protein.
The kinase activity of Tie2 is measured in a 20 mM MOPS buffer, pH 7.2, containing 10 mM MgCl2, 10 mM MnCl2, 1 mM DTT and 10 mM of glycerophosphate. A reaction mixture made up of 70 μl of kinase buffer containing 100 ng of GST-Tie2 enzyme per well is placed in a flashplate 96-well plate kept on ice. 10 μl of the molecule to be tested, diluted in DMSO, at a concentration of at most 10% are then added. For a given concentration, each measurement is carried out in quadruplicate. The reaction is initiated by adding 20 μl of solution containing 2 μg of GST-PLC, 2 μM of cold ATP and 1 μCi of ^33P[ATP]. After incubation for 1 hour at 37° C., the reaction is stopped by adding 1 volume (100 μl) of 200 mM EDTA. After removal of the incubation buffer, the wells are washed three times with 300 μl of PBS. The radioactivity is measured on a Wallac MicroBeta 1450.
The inhibition of the Tie2 activity is calculated and expressed as percentage inhibition with respect to the control activity determined in the absence of compound.

T1 sequence (Q02763 776-1124): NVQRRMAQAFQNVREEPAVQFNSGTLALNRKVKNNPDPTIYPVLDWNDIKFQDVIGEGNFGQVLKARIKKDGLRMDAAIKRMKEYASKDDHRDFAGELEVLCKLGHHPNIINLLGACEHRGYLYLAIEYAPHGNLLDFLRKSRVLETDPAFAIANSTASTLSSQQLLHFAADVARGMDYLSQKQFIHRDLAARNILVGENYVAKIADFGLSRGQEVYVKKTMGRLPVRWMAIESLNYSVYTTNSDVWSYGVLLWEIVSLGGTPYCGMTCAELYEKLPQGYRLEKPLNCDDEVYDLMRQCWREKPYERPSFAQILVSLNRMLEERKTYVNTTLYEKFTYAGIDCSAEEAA

Tie2 % Inhib at 10 μM (FRX) Assay 1 | SMILES
92.6% | Cc1cc2nc(-c3[nH]nc4c3CCN(C(=O)c3ccccc3Nc3ccccc3)C4)[nH]c2cc1C [Example P-31378-112-2]

Same assay, conditions: Assay 1, read-out: Tie2 % Inhib at 10 μM (FRX) Assay 1

inhibition at 10 µM | SMILES
88.7% | Cc1cc2nc(-c3[nH]nc4c3CCN(C(=O)c3ccccc3NCc3ccco3)C4)[nH]c2cc1C [Example P-31378-112-16]
83.1% | Cc1cc2nc(-c3[nH]nc4c3CCN(C(=O)c3ccccc3Nc3ccccc3)C4)[nH]c2cc1C [Example P-31378-112-1]
87.8% | Cc1cc2nc(-c3[nH]nc4c3CCN(C(=O)c3ccccc3NCc3ccccc3)C4)[nH]c2cc1C [Example P-31378-112-8]

Same assay, conditions: Assay 2, 10 µM

Tie2 % Inhib at 10 μM (FRX) Assay 2 | SMILES
92.6% | Cc1cc2nc(-c3[nH]nc4c3CCN(C(=O)c3ccccc3Nc3ccccc3)C4)[nH]c2cc1C [Example P-31378-112-2]

Same assay, conditions: Assay 2, read-out: Tie2 % Inhib at 10 μM (FRX) Assay 2

inhibition at 10 µM | SMILES
88.3% | Cc1cc2nc(-c3[nH]nc4c3CCN(C(=O)c3ccccc3NCc3ccco3)C4)[nH]c2cc1C [Example P-31378-112-16]
88.1% | Cc1cc2nc(-c3[nH]nc4c3CCN(C(=O)c3ccccc3Nc3ccccc3)C4)[nH]c2cc1C [Example P-31378-112-1]
93.3% | Cc1cc2nc(-c3[nH]nc4c3CCN(C(=O)c3ccccc3NCc3ccccc3)C4)[nH]c2cc1C [Example P-31378-112-8]

Same assay, conditions: read-out: Tie2 % Inhib. 10 μM

inhibition at 10 µM | SMILES
23.8% | Cc1cc2nc(-c3[nH]nc4c3CCN(C(=O)Nc3ccc(Cl)cc3)C4)[nH]c2cc1C [Chemistry 63]
19.1% | Cc1cc2nc(-c3[nH]nc4c3CCN(C(=O)Nc3ccccc3C)C4)[nH]c2cc1C [Chemistry 68]
64.8% | Cc1cc2nc(-c3[nH]nc4c3CCN(C(=O)NCc3ccccc3)C4)[nH]c2cc1C [Chemistry 60]
89.3% | CCCC(=O)N1CCc2c(n[nH]c2-c2nc3cc(C)c(C)cc3[nH]2)C1 [Chemistry 52]
47.6% | CCCCN1CCc2c(n[nH]c2-c2nc3cc(C)c(C)cc3[nH]2)C1 [Chemistry 20]
38.5% | CCCCNC(=O)N1CCc2c(n[nH]c2-c2nc3cc(C)c(C)cc3[nH]2)C1 [Chemistry 64]
78.5% | CCS(=O)(=O)N1CCc2c(n[nH]c2-c2nc3cc(C)c(C)cc3[nH]2)C1 [Chemistry 28]
85.9% | Cc1cc2nc(-c3[nH]nc4c3CCN(C(=O)Nc3cccs3)C4)[nH]c2cc1C [Chemistry 65]
97.4% | Cc1cc2nc(-c3[nH]nc4c3CCN(C(=O)c3cccc(Cl)c3Cl)C4)[nH]c2cc1C [Chemistry 42]
83.4% | Cc1cc2nc(-c3[nH]nc4c3CCN(C(=O)C(C)C)C4)[nH]c2cc1C [Chemistry 40]
66.1% | Cc1cc2nc(-c3[nH]nc4c3CCN(Cc3ccco3)C4)[nH]c2cc1C [Chemistry 11]
84.4% | Cc1cc2nc(-c3[nH]nc4c3CCN(C(=O)Cc3ccccc3)C4)[nH]c2cc1C [Chemistry 43]
36.4% | CCN1CCc2c(n[nH]c2-c2nc3cc(C)c(C)cc3[nH]2)C1 [Chemistry 16]

The next lines start with the molecule.

SMILES | inhibition at 10 µM
Cc1cc2nc(-c3[nH]nc4c3CCN(S(=O)(=O)c3ccc(Cl)cc3)C4)[nH]c2cc1C [Chemistry 26] | 89.1%
Cc1cc2nc(-c3[nH]nc4c3CCN(CCc3ccccc3)C4)[nH]c2cc1C [Chemistry 9] | 56.7%
Cc1cc2nc(-c3[nH]nc4c3CCN(S(=O)(=O)c3ccccc3)C4)[nH]c2cc1C [Chemistry 23] | 92.5%
COc1ccc(S(=O)(=O)N2CCc3c(n[nH]c3-c3nc4cc(C)c(C)cc4[nH]3)C2)cc1 [Chemistry 34] | 84.7%
Cc1cc2nc(-c3[nH]nc4c3CCN(S(=O)(=O)c3cccc(Cl)c3Cl)C4)[nH]c2cc1C [Chemistry 25] | 89.1%

Target: T2, human KDR enzyme (Homo sapiens, UniProt P35968)
T2 construct: The cytoplasmic domain of the human KDR enzyme was cloned in GST fusion form; GST; made in house; host or cells: SF21 insect cells (baculovirus, pFastBac)
Assay: KDR kinase inhibition: phosphorylation of PLCγ SH2-SH3 substrate by KDR enzyme, 33P-ATP scintillation plate
Type: biochemical
Conditions: Assay 1
Procedure: The inhibitory effect of the compounds is determined in an assay for phosphorylation of substrate by the KDR enzyme in vitro using a scintillation technique (96-well plate, NEN).
The cytoplasmic domain of the human KDR enzyme was cloned in GST fusion form into the baculovirus expression vector pFastBac. The protein was expressed in SF21 cells and purified to approximately 60% homogeneity. The KDR kinase activity is measured in 20 mM MOPS, 10 mM MgCl2, 10 mM MnCl2, 1 mM DTT, 2.5 mM EGTA, 10 mM b-glycerophosphate, pH=7.2, in the presence of 10 mM MgCl2, 100 μM Na3VO4 and 1 mM NaF. 10 μl of the compound are added to 70 μl of kinase buffer containing 100 ng of KDR enzyme at 4° C. The reaction is initiated by adding 20 μl of solution containing 2 μg of substrate (SH2-SH3 fragment of PLCγ expressed in the form of an GST fusion protein), 2 μCi γ ^33P[ATP] and 2 μM cold ATP. After incubation for 1 hour at 37° C., the reaction is stopped by adding 1 volume (100 μl) of 200 mM EDTA. The incubation buffer is removed and the wells are washed three times with 300 μl of PBS. The radioactivity is measured in each well using a Top Count NXT (Packard) radioactivity counter.
The background noise is determined by measuring the radioactivity in four different wells containing the radioactive ATP and the substrate alone.
A total activity control is measured in four different wells containing all the reagents (γ^33P-[ATP], KDR and PLC-γ substrate) but in the absence of compound.
The inhibition of the KDR activity with the compound of the invention is expressed as percentage inhibition of the control activity determined in the absence of compound.
The compound SU5614 (Calbiochem) (1 μM) is included in each plate as inhibition control.

T2 sequence (P35968 786-1356 limits assumed): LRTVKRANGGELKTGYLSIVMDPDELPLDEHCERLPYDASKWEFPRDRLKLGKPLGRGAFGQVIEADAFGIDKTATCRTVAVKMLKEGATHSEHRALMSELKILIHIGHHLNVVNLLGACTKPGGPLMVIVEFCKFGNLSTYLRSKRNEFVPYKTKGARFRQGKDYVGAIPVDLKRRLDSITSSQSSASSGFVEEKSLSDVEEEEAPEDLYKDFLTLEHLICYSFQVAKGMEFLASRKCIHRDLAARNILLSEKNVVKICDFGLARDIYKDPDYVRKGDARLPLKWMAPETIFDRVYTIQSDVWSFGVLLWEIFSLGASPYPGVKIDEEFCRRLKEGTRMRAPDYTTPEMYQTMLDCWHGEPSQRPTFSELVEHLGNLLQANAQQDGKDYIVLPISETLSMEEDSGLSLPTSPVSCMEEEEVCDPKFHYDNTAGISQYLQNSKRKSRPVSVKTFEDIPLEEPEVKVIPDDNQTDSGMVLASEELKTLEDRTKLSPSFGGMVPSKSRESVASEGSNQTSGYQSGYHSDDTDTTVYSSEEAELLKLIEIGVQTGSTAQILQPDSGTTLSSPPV

KDR % Inhib at 10 μM Assay 1 | SMILES
98.1% | Cc1cc2nc(-c3[nH]nc4c3CCN(C(=O)c3ccccc3Nc3ccccc3)C4)[nH]c2cc1C [Example P-31378-112-2]

Same assay, conditions: Assay 1, read-out: KDR % Inhib at 10 μM Assay 1

inhibition at 10 µM | SMILES
90.2% | Cc1cc2nc(-c3[nH]nc4c3CCN(C(=O)c3ccccc3NCc3ccco3)C4)[nH]c2cc1C [Example P-31378-112-16]
96.5% | Cc1cc2nc(-c3[nH]nc4c3CCN(C(=O)c3ccccc3Nc3ccccc3)C4)[nH]c2cc1C [Example P-31378-112-1]
86.8% | Cc1cc2nc(-c3[nH]nc4c3CCN(C(=O)c3ccccc3NCc3ccccc3)C4)[nH]c2cc1C [Example P-31378-112-8]

Same assay, conditions: Assay 2

KDR % Inhib at 10 μM Assay 2 | SMILES
97.4% | Cc1cc2nc(-c3[nH]nc4c3CCN(C(=O)c3ccccc3Nc3ccccc3)C4)[nH]c2cc1C [Example P-31378-112-2]

Same assay, conditions: Assay 2, read-out: KDR % Inhib at 10 μM Assay 2

inhibition at 10 µM | SMILES
89.1% | Cc1cc2nc(-c3[nH]nc4c3CCN(C(=O)c3ccccc3NCc3ccco3)C4)[nH]c2cc1C [Example P-31378-112-16]
96.7% | Cc1cc2nc(-c3[nH]nc4c3CCN(C(=O)c3ccccc3Nc3ccccc3)C4)[nH]c2cc1C [Example P-31378-112-1]
89% | Cc1cc2nc(-c3[nH]nc4c3CCN(C(=O)c3ccccc3NCc3ccccc3)C4)[nH]c2cc1C [Example P-31378-112-8]

Same assay, conditions: read-out: KDR % Inhib. 10 μM

inhibition at 10 µM | SMILES
-0.3% | Cc1cc2nc(-c3[nH]nc4c3CCN(C(=O)Nc3ccc(Cl)cc3)C4)[nH]c2cc1C [Chemistry 63]
19.5% | Cc1cc2nc(-c3[nH]nc4c3CCN(C(=O)Nc3ccccc3C)C4)[nH]c2cc1C [Chemistry 68]
33.5% | Cc1cc2nc(-c3[nH]nc4c3CCN(C(=O)NCc3ccccc3)C4)[nH]c2cc1C [Chemistry 60]
29.4% | CCCC(=O)N1CCc2c(n[nH]c2-c2nc3cc(C)c(C)cc3[nH]2)C1 [Chemistry 52]
1.65% | CCCCN1CCc2c(n[nH]c2-c2nc3cc(C)c(C)cc3[nH]2)C1 [Chemistry 20]
18% | CCCCNC(=O)N1CCc2c(n[nH]c2-c2nc3cc(C)c(C)cc3[nH]2)C1 [Chemistry 64]
16.5% | CCS(=O)(=O)N1CCc2c(n[nH]c2-c2nc3cc(C)c(C)cc3[nH]2)C1 [Chemistry 28]
63.3% | Cc1cc2nc(-c3[nH]nc4c3CCN(C(=O)Nc3cccs3)C4)[nH]c2cc1C [Chemistry 65]
52.6% | Cc1cc2nc(-c3[nH]nc4c3CCN(C(=O)c3cccc(Cl)c3Cl)C4)[nH]c2cc1C [Chemistry 42]
14.4% | Cc1cc2nc(-c3[nH]nc4c3CCN(C(=O)C(C)C)C4)[nH]c2cc1C [Chemistry 40]
70.3% | Cc1cc2nc(-c3[nH]nc4c3CCN(Cc3ccco3)C4)[nH]c2cc1C [Chemistry 11]
10.9% | Cc1cc2nc(-c3[nH]nc4c3CCN(C(=O)Cc3ccccc3)C4)[nH]c2cc1C [Chemistry 43]
-5.75% | CCN1CCc2c(n[nH]c2-c2nc3cc(C)c(C)cc3[nH]2)C1 [Chemistry 16]

The next lines start with the molecule.

SMILES | inhibition at 10 µM
Cc1cc2nc(-c3[nH]nc4c3CCN(S(=O)(=O)c3ccc(Cl)cc3)C4)[nH]c2cc1C [Chemistry 26] | 27.8%
Cc1cc2nc(-c3[nH]nc4c3CCN(CCc3ccccc3)C4)[nH]c2cc1C [Chemistry 9] | 15.4%
Cc1cc2nc(-c3[nH]nc4c3CCN(S(=O)(=O)c3ccccc3)C4)[nH]c2cc1C [Chemistry 23] | 48%
COc1ccc(S(=O)(=O)N2CCc3c(n[nH]c3-c3nc4cc(C)c(C)cc4[nH]3)C2)cc1 [Chemistry 34] | 18.1%
Cc1cc2nc(-c3[nH]nc4c3CCN(S(=O)(=O)c3cccc(Cl)c3Cl)C4)[nH]c2cc1C [Chemistry 25] | 31.9%
